Among the data in article PMC7939474 (The Journal of Biological Chemistry, 2021) are Kd values, retold here.

The target in this test is T1, VcINDY WT (Vibrio cholerae, UniProt Q9KNE0).
T1 construct: gene VC_A0025
The experiment in a line: biochemical.

In the case of `O=C(O)CCC(=O)O` [succinate], the Kd stood at 4.3 ± 1.5 mM.
